Assay results reported in the supplement of paper PMC10307832.

Assays:
Assay in all cases: relative viability (nuclei count vs DMSO), 5 days (fraction); higher = more cells survive
LCLC-97TM1 = system: LCLC-97TM1
Procedure, shortened: (§1)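 Relative viability is defined as nuclei in treated wells over nuclei in vehicle wells. Duplicate plates were run and medians reported. Lung cancer cell lines in 1536-well plates were dosed by pin tool one day after seeding, with one drug or with a fixed anchor-drug dose plus five library-drug doses (not always all listed) in √10 steps, and nuclei were counted after 5 days.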

NCI-H650 = system: NCI-H650
Procedure, shortened: as §1

H3255 = system: H3255
Procedure, shortened: as §1

NCI-H520 = system: NCI-H520
Procedure, shortened: as §1

BEN = system: BEN
Procedure, shortened: as §1

NCI-H441 = system: NCI-H441
Procedure, shortened: as §1

NCI-H2023 = system: NCI-H2023
Procedure, shortened: as §1

NCI-H596 = system: NCI-H596
Procedure, shortened: as §1

NCI-H460 = system: NCI-H460
Procedure, shortened: as §1

NCI-H1944 = system: NCI-H1944
Procedure, shortened: as §1

PC-3 [JPC-3] = system: PC-3 [JPC-3]
Procedure, shortened: as §1

NCI-H661 = system: NCI-H661
Procedure, shortened: as §1

NCI-H727 = system: NCI-H727
Procedure, shortened: as §1

NCI-H1651 = system: NCI-H1651
Procedure, shortened: as §1

201T = system: 201T
Procedure, shortened: as §1

A-427 = system: A-427
Procedure, shortened: as §1

NCI-H2087 = system: NCI-H2087
Procedure, shortened: as §1

CAL-12T = system: CAL-12T
Procedure, shortened: as §1

NCI-H1915 = system: NCI-H1915
Procedure, shortened: as §1

ABC-1 = system: ABC-1
Procedure, shortened: as §1

LC-2-ad = system: LC-2-ad
Procedure, shortened: as §1

## O=c1cc(-c2cccc3c2Sc2ccccc2S3)oc(N2CCOCC2)c1 + C[C@]1(O)C[C@@H](c2nc(-c3ccc4ccc(-c5ccccc5)nc4c3)c3c(N)nccn32)C1 [Linsitinib] (partner 1 µM)
LCLC-97TM1; first compound 0.08 µM
  relative viability: 0.18
LCLC-97TM1; first compound 0.253 µM
  relative viability: 0.194
LCLC-97TM1; first compound 0.8 µM
  relative viability: 0.203
LCLC-97TM1; first compound 2.53 µM
  relative viability: 0.188
LCLC-97TM1; first compound 8 µM
  relative viability: 0.185
NCI-H650; first compound 0.08 µM
  relative viability: 0.829
NCI-H650; first compound 0.253 µM
  relative viability: 0.854
NCI-H650; first compound 0.8 µM
  relative viability: 0.782
NCI-H650; first compound 2.53 µM
  relative viability: 0.642
NCI-H650; first compound 8 µM
  relative viability: 0.7
H3255; first compound 0.08 µM
  relative viability: 1.15
H3255; first compound 0.253 µM
  relative viability: 1.03
H3255; first compound 0.8 µM
  relative viability: 1.02
H3255; first compound 2.53 µM
  relative viability: 0.865
H3255; first compound 8 µM
  relative viability: 0.983
NCI-H520; first compound 0.08 µM
  relative viability: 0.897
NCI-H520; first compound 0.253 µM
  relative viability: 1.06
NCI-H520; first compound 0.8 µM
  relative viability: 1.15
NCI-H520; first compound 2.53 µM
  relative viability: 0.972
NCI-H520; first compound 8 µM
  relative viability: 1.02
BEN; first compound 0.08 µM
  relative viability: 0.996
BEN; first compound 0.253 µM
  relative viability: 1.04
BEN; first compound 0.8 µM
  relative viability: 1.14
BEN; first compound 2.53 µM
  relative viability: 0.898
BEN; first compound 8 µM
  relative viability: 1.23
NCI-H441; first compound 0.08 µM
  relative viability: 0.549
NCI-H441; first compound 0.253 µM
  relative viability: 0.619
NCI-H441; first compound 0.8 µM
  relative viability: 0.759
NCI-H441; first compound 2.53 µM
  relative viability: 0.584
NCI-H441; first compound 8 µM
  relative viability: 0.632
NCI-H2023; first compound 0.08 µM
  relative viability: 0.611
NCI-H2023; first compound 0.253 µM
  relative viability: 0.747
NCI-H2023; first compound 0.8 µM
  relative viability: 0.723
NCI-H2023; first compound 2.53 µM
  relative viability: 0.458
NCI-H2023; first compound 8 µM
  relative viability: 0.416
NCI-H596; first compound 0.08 µM
  relative viability: 1.02
NCI-H596; first compound 0.253 µM
  relative viability: 1.2
NCI-H596; first compound 0.8 µM
  relative viability: 1.14
NCI-H596; first compound 2.53 µM
  relative viability: 1.08
NCI-H596; first compound 8 µM
  relative viability: 1.15
NCI-H460; first compound 0.08 µM
  relative viability: 0.991
NCI-H460; first compound 0.253 µM
  relative viability: 0.997
NCI-H460; first compound 0.8 µM
  relative viability: 1.08
NCI-H460; first compound 2.53 µM
  relative viability: 0.796
NCI-H460; first compound 8 µM
  relative viability: 0.791
NCI-H1944; first compound 0.08 µM
  relative viability: 1.04
NCI-H1944; first compound 0.253 µM
  relative viability: 1.26
NCI-H1944; first compound 0.8 µM
  relative viability: 1.23
NCI-H1944; first compound 8 µM
  relative viability: 1.18
PC-3 [JPC-3]; first compound 0.08 µM
  relative viability: 1.02
PC-3 [JPC-3]; first compound 0.253 µM
  relative viability: 1.03
PC-3 [JPC-3]; first compound 0.8 µM
  relative viability: 0.992
PC-3 [JPC-3]; first compound 2.53 µM
  relative viability: 0.972
PC-3 [JPC-3]; first compound 8 µM
  relative viability: 0.91
NCI-H661; first compound 0.08 µM
  relative viability: 0.507
NCI-H661; first compound 0.253 µM
  relative viability: 0.473
NCI-H661; first compound 0.8 µM
  relative viability: 0.55
NCI-H661; first compound 2.53 µM
  relative viability: 0.527
NCI-H661; first compound 8 µM
  relative viability: 0.591
NCI-H727; first compound 0.253 µM
  relative viability: 0.284
NCI-H727; first compound 2.53 µM
  relative viability: 0.314
NCI-H727; first compound 8 µM
  relative viability: 0.304
NCI-H1651; first compound 0.08 µM
  relative viability: 1.06
NCI-H1651; first compound 0.253 µM
  relative viability: 1.2
NCI-H1651; first compound 0.8 µM
  relative viability: 0.954
NCI-H1651; first compound 2.53 µM
  relative viability: 0.879
NCI-H1651; first compound 8 µM
  relative viability: 0.865
201T; first compound 0.08 µM
  relative viability: 0.99
201T; first compound 0.253 µM
  relative viability: 1.04
201T; first compound 0.8 µM
  relative viability: 0.929
201T; first compound 2.53 µM
  relative viability: 0.974
201T; first compound 8 µM
  relative viability: 0.986
A-427; first compound 0.08 µM
  relative viability: 1.09
A-427; first compound 0.253 µM
  relative viability: 0.959
A-427; first compound 0.8 µM
  relative viability: 1.19
A-427; first compound 2.53 µM
  relative viability: 1.07
A-427; first compound 8 µM
  relative viability: 1.08
NCI-H2087; first compound 0.08 µM
  relative viability: 1.1
NCI-H2087; first compound 0.253 µM
  relative viability: 1.03
NCI-H2087; first compound 0.8 µM
  relative viability: 0.927
NCI-H2087; first compound 2.53 µM
  relative viability: 0.952
NCI-H2087; first compound 8 µM
  relative viability: 1.01
CAL-12T; first compound 0.08 µM
  relative viability: 0.73
CAL-12T; first compound 0.253 µM
  relative viability: 0.861
CAL-12T; first compound 0.8 µM
  relative viability: 0.899
CAL-12T; first compound 2.53 µM
  relative viability: 0.77
CAL-12T; first compound 8 µM
  relative viability: 0.503
NCI-H1915; first compound 0.08 µM
  relative viability: 1.06
NCI-H1915; first compound 0.253 µM
  relative viability: 1.1
NCI-H1915; first compound 0.8 µM
  relative viability: 1.07
NCI-H1915; first compound 2.53 µM
  relative viability: 1.05
NCI-H1915; first compound 8 µM
  relative viability: 1.12
ABC-1; first compound 0.08 µM
  relative viability: 0.627
ABC-1; first compound 0.253 µM
  relative viability: 1.02
ABC-1; first compound 0.8 µM
  relative viability: 0.717
ABC-1; first compound 2.53 µM
  relative viability: 0.711
ABC-1; first compound 8 µM
  relative viability: 0.954
LC-2-ad; first compound 0.08 µM
  relative viability: 0.79
LC-2-ad; first compound 0.253 µM
  relative viability: 0.967
LC-2-ad; first compound 0.8 µM
  relative viability: 0.828
LC-2-ad; first compound 2.53 µM
  relative viability: 0.749
LC-2-ad; first compound 8 µM
  relative viability: 0.802
